From a melting point compilation (Tetko et al.; mined from patent text by program, amines drawn as free bases though some values may be those of a salt) come the findings set out here.

What is called melting point is the temperature, or range, at which the solid turns liquid.

`CCCCOc1c(CNC(=O)OC(C)(C)C)n(CC(C)C)c(=O)c2ccc(-c3nc(C(=O)O)cs3)cc12`: the melting point was in the range of 195 to 196 °C.

On to `C=CCNc1nc(NC(=O)NCCCC)c2scc(C)c2n1`, for which the melting point amounted to 141 °C.

`O=C(O)c1cn(C2CC2)c2cc(N3CCNCC3)c(F)c(F)c2c1=O` returned a melting point greater than 300 °C.

With `Cc1ccnc(C(=O)c2[nH]c3cc(C(F)(F)F)ccc3c2CC(=O)O)c1`, the melting point lay within 210 to 220 °C.

With `CCOC(=O)C1=C(N)NC(N)=C(C(=O)OCC)C1c1ccnc2ccccc12`, the melting point stood at 145 °C.

As to `COc1ccc(-n2c(=O)[nH]c3c(C(N)=O)nc(-c4cccc(O)c4)nc32)cc1`, the melting point is 386 to 388 °C.

For the compound `COc1cc(S(=O)(=O)N2CCNCC2)cc(OC)c1OC`, the melting point was 131 to 133 °C.

In turn, `Cc1nnc(-c2ccc(O)cc2)o1` had a melting point of 239 °C.

`CCCCc1nnc2c(NC3CCCC3)nc3ccccc3n12` yielded a melting point of 195 to 197 °C.

Regarding `Nc1cc(-n2nnn(CCCF)c2=O)c(F)cc1Cl`, the melting point is 84 °C.

As for `CCOC(Cc1ccc(OCc2nc(C(C)(C)C)oc2C)c(C)c1)C(=O)O` (centres undefined), the melting point lay within 95 to 97 °C.

In the case of `Cc1c(C=O)cccc1-n1cccc1`, the melting point came out at 82 °C.

Compound `Cn1cc(-c2ccccc2)c(=O)c(-c2cccc(S(C)(=O)=O)c2)c1` gave a melting point of 176 to 181 °C.

The compound `COC(=O)c1cc(N2CCOCC2)nc(Cl)n1` showed a melting point of 135 to 138 °C.

Consider `O=[N+]([O-])c1sc(Oc2ccccc2)nc1Cl`, for which the melting point is 96 °C.

Consider `COCc1c(C(=O)OC(C)C)ncc2[nH]c3cccc(Oc4ccc(Cl)cn4)c3c12`, for which the melting point was in the range of 190 to 191 °C.

Take `O=C(O)c1ccc(Br)cc1-c1cc(Cl)cc(Cl)c1`: the melting point was 182 to 186 °C.

For `CCCCCCN1CCC(C(=O)NCC)(c2ccccc2)CC1`, the melting point was in the range of 92 to 94 °C.

The compound `CS(=O)(=O)ON=C(C#N)C(N)=O` showed a melting point of 136 to 142 °C.

Turning to `O=C1COC(COc2ccccc2Cc2cccs2)CN1Cc1ccccc1` (centres undefined), the melting point lay within 97 to 99 °C.

Turning to `OCc1ccc(Br)c(CO)c1`, the melting point is 106 to 108 °C.

For `O=C(Nc1ccc2cc(CN3CCCC3)ccc2c1)c1ccc(-c2ccccc2)nc1`, the melting point was 212 to 214 °C.

With `CCCCC1CCC2(C)C(=CCC3C4CCC(=O)C4(C)CCC32)C1` (centres undefined), the melting point is 84 to 86 °C.

The compound `COc1ccnc(CCc2nc3cc(-c4ccc(S(=O)(=O)Nc5ccccc5OC)cc4)cnc3[nH]2)c1` yielded a melting point of 215 to 216 °C.

In turn, `Nc1ccc2c(c1)C(=O)c1cc(N)ccc1C2=O` came in with a melting point of 337 to 338 °C.

As for `CC12CCC3C(CC=C4CCCCC43C)C1CC=C2Br` (centres undefined), the melting point fell in the range of 109 to 113 °C.

The compound `O=C1C=CC(c2ccccc2)C2(c3ccccc3)CN(C(=O)Cc3ccccc3)CC12` (racemic) showed a melting point of 188 °C.

`CN(C)C(=O)Nc1ccc2c(c1)C(=O)NC(=O)C2(C)C`: the melting point lay within 256 to 258 °C.

For `COc1cc(-c2cn(Cc3ccccc3)c(=O)c3ccccc23)ccc1O`, the melting point lay within 165 to 167 °C.

The compound `CCCCCCCCCCCC(=O)c1ccc(-c2ccc(OC)c(F)c2)cc1` registered a melting point of 124 to 125 °C.

The compound `CC1(C)CCC(C)(C)c2cc3cc(-c4c[nH]c(C(=O)O)c4)ccc3cc21` showed a melting point of 234 to 238 °C.

`Cc1ccc2c(n1)Oc1ccc(C(C)C(=O)OCC(N)=O)cc1C2` (centres undefined) came in with a melting point of 175 to 177 °C.

For the compound `Clc1cc(Cl)c2c(c1)CCC(c1ccccc1)O2` (centres undefined), the melting point lay in the range of 74 to 76 °C.

Compound `O=C(O)[C@H](Cc1ccc(C(F)(F)F)cc1)[C@@H](O)c1ccc(Cl)nc1` (racemic) showed a melting point of 145 to 146 °C.

`NC(=O)c1c(I)c(C(=O)NC(CO)CO)c(I)c(C(=O)NC(CO)CO)c1I` showed a melting point of 246 to 252 °C.

Take `Nc1cccc(-c2cccc(-c3nc(-c4ccc(C(F)(F)F)cc4)cc(C(F)(F)F)n3)c2)c1`: the melting point amounted to 156 °C.

`COC(=O)NCCc1cccc(C(=O)C=CN(C)C)c1`: the melting point fell in the range of 95 to 97 °C.

`Nc1nc(Nc2cccc(Br)c2)c2c(n1)[nH]c1ccccc12`: the melting point is 234 °C.

`CCCC(=O)Nc1ccc2nc(S(N)(=O)=O)sc2c1` registered a melting point of 246 to 247 °C.

Compound `CN1CCC(c2c[nH]c3ccc(NC(=O)c4cccc(F)c4)nc23)CC1` came in with a melting point of 129 to 130 °C.

Consider `O=C1Cc2ccccc2C12COc1cc3c(cc12)OCC(Cc1ccccc1C(F)F)O3` (centres undefined), for which the melting point was 191 to 193 °C.

In turn, `COc1cc(C2CCN(C[C@@H](C)O)CC2)ccc1Nc1ncc2ccc(-c3ccccc3OC)n2n1` showed a melting point of 67 to 74 °C.

In turn, `CCCc1cc2c(c3ccc(O)cc13)OCc1cc(O)ccc1-2` came in with a melting point of 86 to 95 °C.

`COC(=O)C(CCC(C(=O)OC)c1cc(OC)c(OC)c(OC)c1)c1cc(OC)c(OC)c(OC)c1` (centres undefined): the melting point was in the range of 179 to 184 °C.

With `CCOC(=O)C(Cc1ccc(OCCc2nc(-c3ccccc3)oc2C)cc1)C(=O)OCC`, the melting point lay within 69.8 to 70.5 °C.

In turn, `O=S1(=O)CCC(c2ccc(N3CCN(CC(O)(Cn4cncn4)c4ccc(F)cc4F)CC3)cc2)CN1` (centres undefined) came in with a melting point of 165 to 167 °C.

The compound `CCOC(=O)Nc1cc(N)ccc1F` registered a melting point of 88 to 89 °C.

`COc1ccc(C2(C#Cc3cc(C#N)cc(C#N)c3)CCC(=O)CC2)cc1OC1CCCC1` displayed a melting point of 148 °C.

`O=C(c1cccc(CBr)c1)c1cccc(CBr)c1` had a melting point of 147 to 148 °C.

With `CCOC(=O)N1CCOC(CNC(=O)c2cc(Cl)c(N)cc2OC)C1` (centres undefined), the melting point is 140 to 151 °C.

`COC(=O)Cc1ccc2c(c1)C(=O)c1sccc1CO2` had a melting point of 80 to 81 °C.

On to `O=[N+]([O-])c1cc(Cl)ccc1N1CCc2cc(Cl)ccc21`, for which the melting point fell in the range of 130 to 133 °C.

`Cc1c(F)c(N2CCNCC2)cc2c1c(=O)c(C(=O)O)cn2C1CC1` registered a melting point of 226 to 228 °C.

The compound `COC(=O)C[C@]1(C)[C@@H](O)CC[C@H]1C1CCc2cc(OC)ccc2C1` (some centres undefined) displayed a melting point of 86 to 87 °C.

In turn, `Cc1oc(-c2ccccc2)nc1CCC(=O)c1ccc(C=C2SC(=O)NC2=O)cc1` displayed a melting point of 224 to 225 °C.

Compound `N#Cc1ccc(-c2cccc(C=O)c2)cc1` displayed a melting point of 122 to 123 °C.

For the compound `COc1ccccc1-n1c(=O)[nH]c2c(OC)cccc21`, the melting point was 246 to 247 °C.

With `Clc1ccc2onc(Cl)c2c1`, the melting point lay in the range of 43 to 44 °C.

Regarding `CCC(C(O)c1ccc(Cl)cc1)n1ncn(-c2ccc(N3CCN(c4nc5ccccc5o4)CC3)cc2)c1=O` (centres undefined), the melting point is 221 °C.

`COc1cn(-c2ccc(C3=CCOCC3)cc2F)nc(-c2ccnn2-c2ccccc2)c1=O`: the melting point was 229 to 231 °C.

For `Cc1nc2c(cc1C(=O)N(C(=N)N)C(=O)OC(C)(C)C)CCCCC2CO` (centres undefined), the melting point lay within 98 to 100 °C.

Consider `COc1ccc(-c2nc(SCCCCCc3nc4ccccc4[nH]3)[nH]c2-c2ccc(OC)cc2)cc1`, for which the melting point was in the range of 85 to 86 °C.

`O=C(N[C@H]1CCC(=O)N2CCC[C@@H](C(=O)O)N2C1=O)OCc1ccccc1` gave a melting point of 60 to 100 °C.

As to `O=C1Nc2ccc(Cl)cc2C1c1ccccc1Cl` (centres undefined), the melting point fell in the range of 198 to 200 °C.

In turn, `O=C(NC1CCOCC1)c1ccc(-c2cc(-c3c(-c4ccccn4)nc4ccccn34)ccn2)cc1` showed a melting point of 179 °C.

As for `O[C@H]1CC[C@H](n2cnc(-c3ccc(F)cc3)c2-c2ccnc(Nc3ccccc3)n2)CC1`, the melting point is 204 to 206 °C.

In the case of `O=C1CCC(N2Cc3c(OCc4cccc(CN5CCC(c6ccc(F)cc6F)CC5)c4)cccc3C2=O)C(=O)N1` (centres undefined), the melting point lay in the range of 211 to 213 °C.

Take `COc1ccc(NC(=O)c2cc([N+](=O)[O-])ccc2NC(=O)CF)c(C)c1`: the melting point lay in the range of 237 to 239 °C.

`O=C1Nc2ccccc2C12COc1cc3c(cc12)CCCC3` (centres undefined) had a melting point greater than 230 °C.

`CCCCCCCNC(=O)N(C)c1cccc(-c2ccc(CCC(=O)O)cc2OCCC(C)C)c1` showed a melting point of 60 to 62 °C.

Compound `Cc1oc(-c2ccccc2)nc1CCc1nc(COc2ccccc2CC(=O)O)cs1` yielded a melting point of 152 to 153 °C.

With `[N-]=[N+]=Nc1ccc(S(=O)(=O)NCCCCCC(=O)O)cc1`, the melting point was 126 to 127 °C.

In the case of `CCOc1ccc(C2=NN(C3CCN(S(=O)(=O)c4ccc(C)cc4)CC3)C(=O)[C@@H]3CC=CC[C@H]23)cc1OCC`, the melting point lay within 99 to 101 °C.

In turn, `COc1cc(OCc2ccccn2)ccc1/C=C/c1cc(/C=C/c2cc3ccccc3[nH]2)n[nH]1` registered a melting point of 151 to 152 °C.

On to `CCNC(=O)c1ncn2c1CN=C(c1ccccc1Br)c1cc(F)ccc1-2`, for which the melting point was 218 to 220 °C.

With `Cc1nc(CO)sc1-c1ccnc(Nc2ccc(N3CCCCC3)cc2)n1`, the melting point was 194 to 195 °C.

For `Nc1c([N+](=O)[O-])nc(Cl)c2nncn12`, the melting point was 220 °C.

On to `Cc1c(C(C)N(O)C(N)=O)sc2ccccc12` (centres undefined), for which the melting point lay in the range of 130 to 132 °C.

In the case of `Oc1cc(O)c2cc(-c3ccc(F)cc3)oc2c1`, the melting point fell in the range of 189 to 190 °C.

Take `Cc1nc(N2CCc3ccccc3CC2)c(C#N)c(=O)n1NC(=O)OC(C)(C)C`: the melting point lay in the range of 150 to 152 °C.

Take `O=c1cc(-c2ccccc2Cl)[nH]c(=O)n1-c1ccc(C(F)(F)F)cn1`: the melting point is 281 to 283 °C.

Turning to `COc1ccc(C[C@H](N)[C@H](O)c2ccc(F)cc2)cc1` (racemic), the melting point lay in the range of 78 to 79 °C.

Take `Cc1cc2c(C(=O)O)ccc(C(=O)O)c2cc1C`: the melting point is 268 to 280 °C.

For the compound `CSC(=NC(=O)COC(C)=O)N(C)N=Cc1ccccc1`, the melting point fell in the range of 115 to 117 °C.

`Nc1nc(F)cc(OC(F)(F)F)n1` had a melting point of 86 to 89 °C.

`OCC=C(c1ccc(I)cc1)c1ccc(I)cc1`: the melting point fell in the range of 83 to 85 °C.

For `N=C(N)NCCCOc1ccc2c(c1)CC(CC(=O)O)C(=O)N2` (centres undefined), the melting point is 178 to 179 °C.

`O=C(c1ccc(F)cc1)c1ccc(C#Cc2ccc(F)cc2)cc1` came in with a melting point of 190 to 191 °C.

Regarding `CCCNCCc1ccc(NS(=O)(=O)c2ccc(Cl)cc2Cl)cc1`, the melting point was in the range of 165 to 168 °C.
